Converted amounts (≈) assume the structure as drawn. The source made the active and inactive calls. No cut-off for these calls is given here.

Assay [1] deals with Enterococcus faecalis. As to the kind of experiment: Antibacterial activity against Vanomycin-sensitive Enterococcus faecalis NCTC 775 assessed as reduction in bacterial growth incubated for 20 hrs by microplate reader method. The format is functional.
The test system of assay [2] is Pseudomonas aeruginosa. As to the kind of experiment: Antibacterial activity against Pseudomonas aeruginosa PAO1 assessed as reduction in bacterial growth incubated for 20 hrs in presence of PMBN by microplate reader method. Type of assay: functional.
Assay [3] has as its system Staphylococcus aureus. As to the kind of experiment: Antibacterial activity against Staphylococcus aureus ATCC 9144 assessed as reduction in bacterial growth incubated for 20 hrs by microplate reader method. The format is functional.
Assay [4] concerns Escherichia coli. In words: Antibacterial activity against Escherichia coli NCTC 12923 assessed as reduction in bacterial growth incubated for 20 hrs in presence of PMBN by microplate reader method. The format is functional, organism-based.
Assay [5] deals with Acinetobacter baumannii. As to the kind of experiment: Antibacterial activity against Acinetobacter baumannii ATCC 17978 assessed as reduction in bacterial growth incubated for 20 hrs in presence of PMBN by microplate reader method. The format is functional, organism-based.
Assay [6] deals with Pseudomonas aeruginosa. As to the kind of experiment: Antibacterial activity against Pseudomonas aeruginosa NCTC 13437 assessed as reduction in bacterial growth incubated for 20 hrs in presence of PMBN by microplate reader method. The format is functional, organism-based.
In assay [7] the test system is Staphylococcus aureus. As to the kind of experiment: Antibacterial activity against Staphylococcus aureus 1199B assessed as reduction in bacterial growth incubated for 20 hrs by microplate reader method. The format is functional.
The subject of assay [8] is Staphylococcus aureus. In words: Antibacterial activity against Staphylococcus aureus USA 300 assessed as reduction in bacterial growth incubated for 20 hrs by microplate reader method. The format is functional.
In assay [9] the test system is Staphylococcus aureus. As to the kind of experiment: Antibacterial activity against Staphylococcus aureus NCTC 13616 assessed as reduction in bacterial growth incubated for 20 hrs by microplate reader method. Type of assay: functional.
The test system of assay [10] is Acinetobacter baumannii. In words: Antibacterial activity against Acinetobacter baumannii AYE assessed as reduction in bacterial growth incubated for 20 hrs in presence of PMBN by microplate reader method. The format is functional, organism-based.
In assay [11] the test system is Enterococcus faecium. As to the kind of experiment: Antibacterial activity against Vanomycin-resistant Enterococcus faecium NCTC 12204 assessed as reduction in bacterial growth incubated for 20 hrs by microplate reader method. The format is functional.
Assay [12] relates to Enterococcus faecalis. As to the kind of experiment: Antibacterial activity against Vanomycin-resistant Enterococcus faecalis NCTC 12201 assessed as reduction in bacterial growth incubated for 20 hrs by microplate reader method. The format is functional.

For orientation: MIC means the lowest concentration found to suppress growth. For the molecule `O=C(NC[C@H]1CN(c2ccc(N3CCOCC3)c(F)c2)C(=O)O1)[C@H]1CCNC1`, the MIC in assay [1], in assay [3], in assay [7], in assay [8], in [9] and in assay [11] was above 128 µg/mL in each case. In assay [12], the MIC was above 128 µg/mL. For the same molecule, the outcome in assay [2], in [4], in [5], in assay [6] and in [10] was inactive.

Consider `O=C(NC[C@H]1CN(c2ccc(N3CCOCC3)c(F)c2)C(=O)O1)c1cncs1`, for which the minimum inhibitory concentration (MIC) came to 16 µg/mL (≈ 39.4 µM) in [1]; 16 µg/mL in assay [2]; 16 µg/mL (≈ 39.4 µM) in assay [3]; 16 µg/mL (≈ 39.4 µM) in assay [7]; 16 µg/mL (≈ 39.4 µM) in [8]; 16 µg/mL (≈ 39.4 µM) in assay [9]. For the same molecule, the MIC in assay [11] and in assay [12] was 16 µg/mL (≈ 39.4 µM) throughout. In addition, the outcome in assay [4], in assay [5], in assay [6] and in [10] was inactive.

As for `O=C(NC[C@H]1CN(c2ccc(N3CCOCC3)c(F)c2)C(=O)O1)c1cnc(Br)s1`, the MIC in assay [1] turned out to be 32 µg/mL (≈ 65.9 µM); in assay [2], 16 µg/mL; in [3] it was 16 µg/mL (≈ 33 µM); in assay [7], 32 µg/mL (≈ 65.9 µM); in [8], 32 µg/mL (≈ 65.9 µM); in [9], 16 µg/mL (≈ 33 µM). Further, the minimal inhibitory concentration (MIC) in assay [11] came to 8 µg/mL (≈ 16.5 µM); in assay [12] it was 16 µg/mL (≈ 33 µM). Moreover, the result in [4], in assay [5], in [6] and in [10] was inactive.

Consider `O=C(NC[C@H]1CN(c2ccc(N3CCOCC3)c(F)c2)C(=O)O1)c1cccs1`, for which the MIC in assay [1] amounted to 16 µg/mL (≈ 39.5 µM); in assay [2] it was 16 µg/mL; in assay [3] it was 16 µg/mL (≈ 39.5 µM); in assay [7], 8 µg/mL (≈ 19.7 µM); in [8], 16 µg/mL (≈ 39.5 µM); in [9] it was 16 µg/mL (≈ 39.5 µM). The MIC in [11] and in [12] was 8 µg/mL (≈ 19.7 µM) each time. The result in assay [4], in assay [5], in assay [6] and in [10] was inactive.

As for `Cc1ncsc1C(=O)NC[C@H]1CN(c2ccc(N3CCOCC3)c(F)c2)C(=O)O1`, the MIC in assay [1] came to 32 µg/mL (≈ 76.1 µM); in assay [2], 16 µg/mL; in assay [3], 16 µg/mL (≈ 38.1 µM); in assay [7], 32 µg/mL (≈ 76.1 µM); in [8] it was 16 µg/mL (≈ 38.1 µM); in [9] it was 16 µg/mL (≈ 38.1 µM). Besides, the MIC in assay [11] and in assay [12] was 16 µg/mL (≈ 38.1 µM) throughout. Further, the result in assay [4], in [5], in assay [6] and in assay [10] was inactive.

Source of the values: ChEMBL document CHEMBL5055653, “Synthesis, microbiological evaluation and structure activity relationship analysis of linezolid analogues with different C5-acylamino substituents” (2021).
